What was measured:
[1] = molecular target: T1, Muscarinic acetylcholine receptor M1 (Rattus norvegicus, UniProt P08482); experiment: Compound was tested for inhibiting [3H]pirenzepine Binding to Muscarinic receptor (M1) receptor in Rat Cortex Homogenates
T1 sequence (P08482 whole entry): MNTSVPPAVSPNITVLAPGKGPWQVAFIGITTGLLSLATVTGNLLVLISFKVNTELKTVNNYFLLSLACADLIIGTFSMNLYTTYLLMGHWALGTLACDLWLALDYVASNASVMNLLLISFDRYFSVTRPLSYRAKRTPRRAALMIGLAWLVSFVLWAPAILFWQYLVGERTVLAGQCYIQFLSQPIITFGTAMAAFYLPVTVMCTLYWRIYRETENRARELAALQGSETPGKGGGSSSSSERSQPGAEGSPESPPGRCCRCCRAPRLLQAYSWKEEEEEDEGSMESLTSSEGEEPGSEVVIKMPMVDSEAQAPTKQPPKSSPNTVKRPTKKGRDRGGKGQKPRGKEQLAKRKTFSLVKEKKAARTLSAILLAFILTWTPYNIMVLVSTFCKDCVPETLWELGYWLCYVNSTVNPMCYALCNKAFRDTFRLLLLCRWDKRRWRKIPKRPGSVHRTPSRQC

[2] = molecular target: Muscarinic acetylcholine receptor M3 (Cavia porcellus, UniProt Q8VH26); experiment: Evaluation of antagonistic affinity against muscarinic receptor (M3) in guinea pig ileum; type: functional, tissue-based; settings: read-out: pA2 (converted)
[3] = molecular target: Muscarinic acetylcholine receptor M3 (Rattus norvegicus, UniProt P08483); experiment: Compound was tested for inhibiting [3H]N-Methyl-scopolamine Binding to Muscarinic receptor (M3) in Rat Submaxillary Gland
[4] = molecular target: T2, Muscarinic acetylcholine receptor M2 (Rattus norvegicus, UniProt P10980); experiment: Compound was tested for inhibiting [3H]N-Methyl-scopolamine Binding to Muscarinic receptor (M2) in Rat Heart
T2 sequence (P10980 whole entry): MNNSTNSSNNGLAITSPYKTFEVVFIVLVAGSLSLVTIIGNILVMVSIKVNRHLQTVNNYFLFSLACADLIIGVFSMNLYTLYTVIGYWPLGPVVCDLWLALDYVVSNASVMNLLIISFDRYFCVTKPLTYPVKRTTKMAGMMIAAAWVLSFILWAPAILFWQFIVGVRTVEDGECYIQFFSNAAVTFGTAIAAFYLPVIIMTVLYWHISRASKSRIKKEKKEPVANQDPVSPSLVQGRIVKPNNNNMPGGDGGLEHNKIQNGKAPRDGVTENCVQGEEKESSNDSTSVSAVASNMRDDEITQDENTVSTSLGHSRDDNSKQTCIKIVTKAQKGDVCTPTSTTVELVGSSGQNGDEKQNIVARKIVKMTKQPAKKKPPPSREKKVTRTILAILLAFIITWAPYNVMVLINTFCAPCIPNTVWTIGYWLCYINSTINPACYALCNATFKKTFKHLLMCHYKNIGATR

[5] = molecular target: Muscarinic acetylcholine receptor M2 (Cavia porcellus); experiment: Evaluation of antagonistic affinity against muscarinic receptor (M2) in guinea pig left atria; settings: read-out: pA2 (converted)
[6] = molecular target: T3, Muscarinic acetylcholine receptor M4 (Homo sapiens, UniProt P08173); experiment: Compound was tested for binding affinity against Muscarinic acetylcholine receptor M4 in NG 108-15 cell homogenates; type: cell-based
T3 sequence (P08173 whole entry): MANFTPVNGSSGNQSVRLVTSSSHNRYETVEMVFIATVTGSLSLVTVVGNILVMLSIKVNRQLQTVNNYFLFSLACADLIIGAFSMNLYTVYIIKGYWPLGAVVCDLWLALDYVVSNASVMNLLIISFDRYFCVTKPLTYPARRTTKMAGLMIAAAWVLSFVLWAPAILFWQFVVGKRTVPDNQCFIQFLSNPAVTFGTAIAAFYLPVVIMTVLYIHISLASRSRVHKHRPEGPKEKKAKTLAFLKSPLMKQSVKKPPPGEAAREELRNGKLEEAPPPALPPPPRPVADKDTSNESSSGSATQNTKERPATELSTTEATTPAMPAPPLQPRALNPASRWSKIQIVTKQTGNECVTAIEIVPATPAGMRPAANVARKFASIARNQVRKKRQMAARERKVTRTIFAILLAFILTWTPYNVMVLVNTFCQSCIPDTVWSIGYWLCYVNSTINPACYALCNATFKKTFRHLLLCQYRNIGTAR

Chain of Muscarinic acetylcholine receptor M3 (Rattus norvegicus, UniProt P08483) (P08483 whole entry): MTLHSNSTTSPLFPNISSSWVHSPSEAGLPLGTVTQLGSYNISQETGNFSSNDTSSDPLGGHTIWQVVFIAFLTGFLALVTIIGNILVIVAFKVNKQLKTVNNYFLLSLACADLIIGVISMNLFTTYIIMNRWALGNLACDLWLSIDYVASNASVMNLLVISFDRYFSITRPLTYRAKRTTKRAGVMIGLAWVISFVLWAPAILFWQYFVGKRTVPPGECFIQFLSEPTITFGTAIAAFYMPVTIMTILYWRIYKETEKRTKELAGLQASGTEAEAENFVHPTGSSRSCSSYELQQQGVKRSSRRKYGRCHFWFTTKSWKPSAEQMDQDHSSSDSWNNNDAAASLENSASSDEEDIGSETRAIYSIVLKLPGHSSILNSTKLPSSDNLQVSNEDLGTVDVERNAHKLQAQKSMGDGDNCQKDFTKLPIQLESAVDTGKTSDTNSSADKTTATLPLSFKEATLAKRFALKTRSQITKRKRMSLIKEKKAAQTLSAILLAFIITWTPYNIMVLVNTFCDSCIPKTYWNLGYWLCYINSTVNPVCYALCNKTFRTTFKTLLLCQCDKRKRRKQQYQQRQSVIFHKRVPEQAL
Chain of Muscarinic acetylcholine receptor M3 (Cavia porcellus, UniProt Q8VH26) (Q8VH26 whole entry): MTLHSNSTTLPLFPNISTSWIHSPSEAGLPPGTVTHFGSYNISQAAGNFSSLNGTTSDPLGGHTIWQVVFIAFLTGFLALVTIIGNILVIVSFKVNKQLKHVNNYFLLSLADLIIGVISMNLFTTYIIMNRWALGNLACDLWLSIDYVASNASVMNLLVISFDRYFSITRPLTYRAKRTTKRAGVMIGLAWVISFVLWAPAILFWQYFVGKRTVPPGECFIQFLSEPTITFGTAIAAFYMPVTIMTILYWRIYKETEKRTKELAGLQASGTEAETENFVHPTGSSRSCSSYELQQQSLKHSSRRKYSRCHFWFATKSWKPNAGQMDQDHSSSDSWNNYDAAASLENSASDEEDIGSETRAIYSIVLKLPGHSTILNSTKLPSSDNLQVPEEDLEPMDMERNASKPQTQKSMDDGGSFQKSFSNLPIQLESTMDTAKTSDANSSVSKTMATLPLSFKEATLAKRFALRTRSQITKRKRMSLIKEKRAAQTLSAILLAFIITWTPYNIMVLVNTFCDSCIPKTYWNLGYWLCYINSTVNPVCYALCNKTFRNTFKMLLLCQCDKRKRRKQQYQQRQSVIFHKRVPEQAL

Structure (SMILES) | Ki [1] [nM] | Kb [2] [nM] | Ki [3] [nM] | Ki [4] [nM] | Kb [5] [nM] | Ki [6] [nM]
C[N+]1(C)CCC2(CC1)OC(=O)C(c1ccccc1)(c1ccccc1)O2 | 5.01 | 0.933 | 2.95 | 2.75 | 1.23 | 
C[N+]1(C)C2CCC1CC1(C2)OC(=O)C(c2ccccc2)(c2ccccc2)O1 (stereo in doubt; 4a) | 0.398 | 3.63 | 10.5 |  |  | 4.68
C[N+]1(C)C2CCC1CC1(C2)OC(=O)C(c2ccccc2)(c2ccccc2)O1 (stereo in doubt; 4b) | 0.794 | 20.9 | 50.1 |  |  | 4.37
C[N+]1(C)CCC(OC(=O)C(c2ccccc2)c2ccccc2)CC1 [4-DAMP] | 0.589 |  |  |  |  | 

— ChEMBL document CHEMBL1159156, “Design, synthesis and biological activity of some 4-DAMP- related compounds” (Bioorg Med Chem Lett, 1995)
